From patent US10526343B2, “Heterocyclic systems and pharmaceutical applications thereof” (University of Sharjah, priority 2018, dated 2020) come the findings set out here.

Each structure is given as a SMILES string.

The test system of test [1] is Bacillus subtilis (environmental isolate). The experiment in a line: Cell viability assay (resazurin) screening for antibacterial activity. It counts as cell-based. Also noted: key: Positive: A positive result indicates antibacterial activity expressed as growth inhibition; Negative: a negative result indicates no antibacterial activity expressed as bacterial growth at the tested concentration. The conditions noted are these: single high concentration of 1 mg/mL. (In general: The colour change of resazurin is a common sign of viable cells or microbes.)

Test [2] concerns MRSA-1. The experiment in a line: Examination of bacterial cell walls by atomic force microscope (AFM). It counts as cell-based, Staphylococcus aureus. The settings on record: MRSA-1, 25 μg/mL, 4 hours. Here is the method: Atomic force microscopy (AFM) provides three-dimensional images of the surfaces of living microbial cells in real time and in high resolution with minimal sample preparation. Compound 1o was tested against the bacterial strain MRSA-1 and the slides were examined under AFM. Specifically, FIGS. 5A1 and 5B1 show an untreated MRSA-1 strain at scan sizes of 10 μm^2 and […], respectively, and FIGS. 5A2 and 5B2 show a MRSA-1 strain treated with compound 1o at scan sizes of 10 μm^2 and 5 μm^2, respectively. […] Rapid bacterial killing coupled with cell wall damage as evidenced in the AFM images indicate the action of compound 1o on the cell wall, as reported for the known antibiotics like polymyxin, which rapidly breaks the cell membrane of Gram-negative bacteria, causing fast cell death.
Compound 1o was tested against the bacterial strain MRSA-1. Exponentially growing bacterial cells were prepared in Mueller-Hinton broth at a concentration of approximately 10^8 CFU/mL by adjusting the turbidity to 0.5 with a McFarland™ densitometer (DEN-1B, Grant-Bio, UK). […]

In test [3] the test system is S. aureus (ATCC 25923). Kind of test: MIC by broth microdilution. It counts as cell-based. The conditions noted are these: Staphylococcus aureus, ATCC25923. In outline: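 CLSI broth microdilution in Mueller-Hinton broth, two-fold dilutions over 100–0.78 μg/mL, 20 hours at 37° C. CellTiter-Blue then added for 4 hours at 37° C.; MIC was the lowest concentration preventing the blue-to-pink colour change.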
On the technique in general: Dilution methods test growth across graded concentrations, often in twofold steps.

The subject of test [4] is Pseudomonas aeruginosa (ATCC 27853). Kind of test: Cell viability assay (resazurin) screening for antibacterial activity. It counts as cell-based. Also on record: key: Positive: A positive result indicates antibacterial activity expressed as growth inhibition; Negative: a negative result indicates no antibacterial activity expressed as bacterial growth at the tested concentration. The conditions noted are these: single high concentration of 1 mg/mL.

Test [5] has as its system Enterococcus faecalis (ATCC 29212). Described as above. Format: cell-based. Also noted: key: Positive: A positive result indicates antibacterial activity expressed as growth inhibition; Negative: a negative result indicates no antibacterial activity expressed as bacterial growth at the tested concentration. The conditions noted are these: single high concentration of 1 mg/mL.

The test system of test [6] is Staphylococcus aureus (ATCC 25923). The description is as above. It counts as cell-based. The conditions noted are these: single high concentration of 1 mg/mL.
Test [7] deals with MRSA-1. The experiment in a line: Time-kill study. Format: cell-based, Staphylococcus aureus. As to the method:
Time-kill study: Compound 1o was tested for the time required to kill the bacterial strain MRSA-1. A time-kill assay was performed by the broth micro-dilution method in accordance with the CLSI guidelines. Inoculum suspensions with approximately 5×10^5 CFU/mL of exponentially growing bacterial cells were incubated in each well of a 96-well plate. […] Aliquots of 20 μL were removed from the inoculum culture after timed intervals of incubation (i.e. 0, 30 minutes, 1, 2, 4, 6, 8, and 24 hours), and serial 10-fold dilutions were prepared in 0.85% sodium chloride solution. Then, 10-100 μL of each dilution (as appropriate) were spread on the surface of Mueller-Hinton agar plates and incubated at 37° C. for 24 hours. Plate count technique was used to determine the number of viable cells for each time point. The experiments were performed in triplicate. Meropenem and ciprofloxacin were used as quality control antibiotics.

For orientation: MIC means the smallest concentration in the dilution series that meets the test's criterion for growth inhibition.

With `COC(=O)CC1COc2c(cc3c4c2CCCN4CCC3)-c2c(NC(C)(C)C)n3c(-c4ccc(Br)cc4)c(C)sc3[n+]21` (centres unmarked) [Compound 1o], the “antibacterial activity, Bacillus subtilis” value in test [1] is reported as “Positive”. The “bacterial cell morphology under AFM” value in test [2] is “Bacterial cell shape distortion and leakage of the intracellular contents”. In test [3], this compound displayed a minimal inhibitory concentration (MIC) of 3.12 µg/mL. Besides, the “antibacterial activity, Pseudomonas aeruginosa” value in test [4] is reported as “Negative”. The “antibacterial activity, Enterococcus faecalis” value in test [5] was “Positive”. In addition, the “antibacterial activity, Staphylococcus aureus” value in test [6] is reported as “positive antibacterial activities”. Besides, the “time of exposure at which killing was achieved” value came to 6 h in test [7] (12.5 μg/mL), 2 h in test [7] (25 μg/mL), 24 h in test [7] (3.125-6.25 μg/mL) and 0.5 h in test [7] (concentrations between 50-100 μg/mL). Further, in test [7] (concentration ≥50 μg/mL), the “time of exposure to complete elimination of MRSA growth” value is ≤ 30 min.
